Patent publication US20130196954A1, “METHOD OF TREATING ACNE” (priority 2010, published 2013)

Experiments:
moderate or severe acne = assay: Phase 2 randomized, double-blind, placebo-controlled clinical study, efficacy; assay type: in vivo, human; details: ITT; for Reduction from baseline in inflammatory lesion count / Success Rate (IGA clear or almost clear): oral once daily
Experimental: As used herein, “success rate” means the percentage of subjects who achieve a score of “clear” or “almost clear” by Investigator's Global Assessment (IGA) (Inflammatory): A phase 2, multi-center, randomized, double-blind, parallel group, placebo-controlled study was conducted. The treatments were (1) 40 mg doxycycline tablet containing 30 mg IR and 10 mg DR (CD2575/101); (2) doxycycline 100 mg capsules; and (3) placebos (double dummy), which were administered orally once daily. Patients having moderate or severe acne (25 to 75 inflammatory lesions on the face (including the nose) were subjects in the study. Total 660 subjects (220/group) were divided in a 1:1:1 randomization for the three treatments. The treatments lasted 16 weeks. The following were measured for efficacy studies: change from baseline to week 16 (LOCF, ITT) in inflammatory lesion counts (primary endpoint); success rate at week 16 (LOCF, ITT); percent change in inflammatory lesion counts from baseline to week 16 (LOCF, ITT); percent change in total lesion counts from baseline to week 16 (LOCF, ITT); change from baseline to week 16 (LOCF, ITT) in non-inflammatory lesion counts; global assessment for inflammatory lesions of truncal acne at baseline, week 12, and week 16/ET visit, etc. The investigator evaluated the subject's acne at every study visit using the Investigator's Global Assessment (Inflammatory) scale as that described above. The IGA scale in this study focused on inflammatory lesions as the mode of study drug action in acne vulgaris is primarily anti-inflammatory. Onset of efficacy was to be determined for the change in inflammatory lesions and for the success rate, by analyzing time points earlier than week 16

[1] = Phase 2 clinical study, safety (adverse events); assay type: in vivo, human
Experimental: A phase 2, multi-center, randomized, double-blind, parallel group, placebo-controlled study was conducted. The treatments were (1) 40 mg doxycycline tablet containing 30 mg IR and 10 mg DR (CD2575/101); (2) doxycycline 100 mg capsules; and (3) placebos (double dummy), which were administered orally once daily.
Patients having moderate or severe acne (25 to 75 inflammatory lesions on the face (including the nose) were subjects in the study. Total 660 subjects (220/group) were divided in a 1:1:1 randomization for the three treatments. The treatments lasted 16 weeks.
The safety studies included standard safety reporting. Adverse events of special interest included phototoxicity; pseudotumor cerebri; and pseudomembranous colitis. Vital signs were observed by the investigator at each visit. Lab tests were conducted at 0, 8 & 16 weeks.

[2] = N = 216 (40 mg), N = 223 (100 mg)

## C[C@H]1c2cccc(O)c2C(=O)C2=C(O)[C@]3(O)C(=O)C(C(N)=O)=C(O)[C@@H](N(C)C)[C@@H]3[C@@H](O)[C@@H]21 [Doxycycline 100 mg, doxycycline]
Moderate or severe acne; Week 12 (LOCF)
  Median % Change in Inflammatory Lesion Count: −46.7%
  Median % change in Total Lesion Count: −30.6%
  Reduction in inflammatory lesion count, delta vs placebo: 0.3
  Success Rate, delta vs placebo: −1.4
  Reduction from baseline in inflammatory lesion count: 12.2 (0.604)
  Success Rate (IGA clear or almost clear): 5.4% (0.536)
Moderate or severe acne; Week 16 (LOCF)
  Median % Change in Inflammatory Lesion Count: −47.3%
  Median % change in Total Lesion Count: −35.9%
  Reduction in inflammatory lesion count, delta vs placebo: 0.3
  Success Rate, delta vs placebo: 6.1
  Reduction from baseline in inflammatory lesion count: 12.9 (0.595)
  Success Rate (IGA clear or almost clear): 13.8% (0.035)
[1]; 16 weeks once daily oral
  drug related AEs (nausea, vomiting & headaches): 38
[1]; 16 weeks once daily oral, N = 216 (40 mg), N = 223 (100 mg)
  Total Number of AE(s): 50
[1]; [2]
  Abdominal discomfort, number of subjects: 4
  Abdominal discomfort, percent of subjects: (1.8%)
  Dizziness, number of subjects: 1
  Dizziness, percent of subjects: (0.4%)
  Headache, number of subjects: 6
  Headache, percent of subjects: (2.7%)
  Nausea, number of subjects: 12
  Nausea, percent of subjects: (5.4%)
  Tinnitus, number of subjects: 0
  Total Number of Subjects with AE(s), number: 38
  Total Number of Subjects with AE(s), percent: (17.0%)
  Urticaria, number of subjects: 2
  Urticaria, percent of subjects: (0.9%)
  Vomiting, number of subjects: 14
  Vomiting, percent of subjects: (6.3%)
  Vulvovaginal mycotic infection, number of subjects: 1
  Vulvovaginal mycotic infection, percent of subjects: (0.4%)
